{
  "source": "patent US12281093B2",
  "about": "“3-(1,2,3,6-tetrahydropyridin-2-YL) pyridine glutarate or a pharmaceutically acceptable solvate thereof” (PHILIP MORRIS PRODUCTS S.A., priority 2018, dated 2025)",
  "key": {"[1]": {"experiment": "Ambient stability assessment, open Petri dish, 7 days", "assay_type": "physicochemical", "details": "ambient conditions, open in a fume hood, T=0, 3 and 7 days", "protocol": "For ambient stability assessment, anatabine glutarate (100 mg) was weighed into a clear glass Petri dish and retained at ambient conditions, open in a fume hood for 7 days. The stored sample was visually assessed at T=0, 3 and 7 days. No change in the color or any evidence of deliquescence were observed (FIG. 12)."}, "[2]": {"experiment": "Forced degradation trial by HPLC-UV", "assay_type": "physicochemical", "details": "oxidized sample, 3% hydrogen peroxide added; T=0, 4 and 18 hours; only condition of acid, base, control, heat, oxidation with degradation", "protocol": "For evaluation of stability by HPLC-UV, 200 μg/ml sample solution of anatabine and anatabine glutarate were prepared in duplicate by weighing approximately 10 mg and dissolving in 50 ml volumetric flask and bringing to the volume with deionized water. During the HPLC method optimization the run time and gradient have been adjusted for stability analysis. After the method optimization, a forced degradation trial was run to aid the planned stability assessment analysis by identifying any degradants or impurities present in the anatabine glutarate sample. The forced degradation trial analyzed samples under five conditions—acid, base, control, heat and oxidation—and were tested at T=0, 4 and 18 hours."}, "[3]": {"experiment": "Dynamic vapor sorption (DVS) testing", "assay_type": "physicochemical", "details": "for mass gain between the starting weight and the end weight: DVS double cycle, final mass vs starting mass", "protocol": "Anatabine glutarate (20 mg) was dispensed directly into a pre-weighed sample pan and transferred to the instrument (DVS1 Advantage). Double cycle 0-90-O-90-0% RH method with 10% RH steps was applied.\nDynamic vapor sorption (DVS) was performed on SMS DVS dynamic vapor sorption instrument using DVS control software v1.0.6.0. 30 mg of sample was weighed in stainless steel DVS basket before submitting for analysis. The samples were analyzed over the range of 0-90/RH with a maximum time of 6 hours per humidity stage. Each sample was exposed to a double cycle. Analysis was performed as a weight percent change from 0-90% RH with isothermal plots also being examined. XRPD analysis of all samples was performed post-DVS.\nThis indicates a gain of moisture.\nThis was further confirmed by an isotherm plot of this sample.\nWhen comparing X-ray diffraction patterns of the sample before and after DVS a match was observed."}, "[4]": {"experiment": "Stability assessment at accelerated conditions (40° C./75% RH, 7 days): visual, TGA, XRPD", "assay_type": "physicochemical", "protocol": "Anatabine glutarate was analyzed at T=0, and an aliquot subsequently stored in a glass vial with a screw cap lid at accelerated conditions (40° C./75% RH) in an incubator for 7 days prior to further analysis. […] The stored sample was also assessed at T=0 and again post T=7 days using TGA, XRPD and HPLC-UV.\nPowder X-ray diffraction (XRPD) was performed on Bruker D8 Advance XRPD using 9 mm cavity and flat plate sample holders. Samples were prepared by coating them onto sample holders fitted with a zero background silicon wafer (5 1 0). Analysis was performed using a Cu Kα X-Ray source which operated at 40 kV at 40 mA and a Lynx Eye TM detector, all samples were analyzed over the range 2-40° 20.\nThermogravimetric Analysis (TGA) was performed on Perkin Elmer PYRIS 1 TGA using 40 μL aluminum pans (vented) in ceramic crucibles. The samples were heated from room temperature to 400° C. at 10° C./min (unless otherwise stated) under a stream of nitrogen gas."}, "[5]": {"details": "in vivo; cited from earlier work"}, "STAT3 and NFkB signaling": {"system": "STAT3 and NFkB signaling", "details": "periphery and CNS, via regulation of STAT3 and NFkB signaling; cited from earlier work"}, "nuclear factor κB (NFKB)": {"system": "nuclear factor κB (NFKB)", "details": "cited from earlier work"}, "[6]": {"experiment": "Hygroscopicity of comparative anatabine salts (handling observation)", "assay_type": "physicochemical", "protocol": "Anatabine free base (160 mg, 1 mmol) was dissolved in anhydrous acetone (2.5 ml). To the formed solution was added a solution of anhydrous citric acid (192 mg, 1 mmol) in anhydrous acetone (3 ml, required sonication) with stirring under nitrogen. The mixture was stirred for 2 hours and then filtered under a blanket of nitrogen. The solid was washed with a small quantity of anhydrous acetone and dried in vacuo. A yield of 340 mg (96.6%) of anatabine citrate was achieved. […] Chemical structure and stoichiometry was confirmed by proton NMR. The solid form of the citrate contains captured acetone."}, "[7]": {"details": "stored at 40° C./75% RH for 7 days"}},
  "note": "Read-outs that look alike come from different tables or passages of the source.",
  "data": [
    {"compound": "C1=CCC(c2cccnc2)NC1", "note": "(centres unmarked) [anatabine glutarate, 3-(1,2,3,6-tetrahydropyridin-2-yl)pyridine glutarate]", "values": [
      {"measurement": "visual assessment: color or evidence of deliquescence", "setting": "[1]", "value": "No change"},
      {"measurement": "degradation by peak area (HPLC-UV)", "setting": "[2]", "value": "> 1", "unit": "%"},
      {"measurement": "mass gain on first sorption cycle", "setting": "[3]; DVS 0-90% RH, first sorption cycle, majority of gain above 70% RH", "value": 55, "unit": "%"},
      {"measurement": "mass gain in second sorption cycle", "setting": "[3]; DVS 0-90% RH", "value": 50, "unit": "%"},
      {"measurement": "mass gain in second sorption cycle", "setting": "[3]; DVS 0-90% RH, listed as Anatabine glutarate", "value": "about 50%"},
      {"measurement": "mass gain between the starting weight and the end weight", "setting": "[3]", "value": 5, "unit": "%"},
      {"measurement": "mass gain between the starting weight and the end weight", "setting": "[3]; listed as Anatabine glutarate", "value": "about 5%"},
      {"measurement": "mass loss on first desorption cycle", "setting": "[3]; DVS first desorption cycle", "value": "about 50%"},
      {"measurement": "mass above the starting mass after first desorption", "setting": "[3]; DVS, end of first desorption", "value": 5, "unit": "%"},
      {"measurement": "crystal form before and after DVS (XRPD comparison)", "setting": "[3]; sample left overnight after DVS, recrystallized into a solid form", "value": "identical"},
      {"measurement": "visual assessment: color or evidence of deliquescence", "setting": "[4]; 40° C./75% RH, glass vial with screw cap, T=0, 3 and 7 days", "value": "no change observed"},
      {"measurement": "TGA mass loss between 20-130° C.", "setting": "[4]; T=7 days sample, 40° C./75% RH", "value": 0.5, "unit": "%"},
      {"measurement": "TGA mass loss between 150° C. and 400° C.", "setting": "[4]; T=7 days sample, 40° C./75% RH", "value": 80, "unit": "%"},
      {"measurement": "evidence of degradation", "setting": "[4]; accelerated conditions (40° C./75% RH) after 7 days", "value": "has not shown evidence of degradation"},
      {"measurement": "change in thermal stability", "setting": "[4]; [7]", "value": "no change in thermal stability"},
      {"measurement": "change to the crystalline form (XRPD)", "setting": "[4]; [7]", "value": "no change to the crystalline form"},
      {"measurement": "difference in TGA mass loss between T=0 and T=7 days", "setting": "[4]; superposition of thermograms, 40° C./75% RH", "value": 2, "unit": "%"}
    ]},
    {"compound": "C1=CCC(c2cccnc2)NC1", "note": "(centres unmarked) [anatabine, 3-[1,2,3,6-Tetrahydropyridin-2-yl]pyridine]", "values": [
      {"measurement": "reversal of precipitated nicotine withdrawal", "setting": "[5]", "value": "does not reverse"},
      {"measurement": "rewarding effect in rodents trained to self-administer nicotine", "setting": "[5]", "value": "do not find anatabine to be rewarding"},
      {"measurement": "anti-inflammatory activity", "setting": "STAT3 and NFkB signaling", "value": "has an anti-inflammatory activity"},
      {"measurement": "transcription mediated by nuclear factor κB (NFKB)", "setting": "nuclear factor κB (NFKB)", "value": "reduces transcription"}
    ]},
    {"compound": "anatabine citrate", "values": [
      {"measurement": "hygroscopicity", "setting": "[6]", "value": "extremely hygroscopic"},
      {"measurement": "hygroscopicity", "setting": "[6]; listed as citrate", "value": "highly hygroscopic"}
    ]}
  ]
}
